Measurements from patent US20220079966A1, “HYALURONAN SYNTHESIS INHIBITION FOR TREATING AUTOIMMUNE, INFLAMMATORY, FIBROTIC, OR PROLIFERATIVE DISEASES OR DISORDERS” (The Board of Trustees of the Leland Stanford Junior …, priority 2018, published 2022).

What was measured:
human cell lines = assay: HA synthesis by human cell lines (unpublished data); format: cell-based; conditions: compared with parent drug 4-MU
[1] = HPLC of 4-MU and metabolites in serum of mice fed 4-MU chow for two weeks; format: in vivo; conditions: mice fed 4-MU for two weeks
Excerpt: As a result of efficient glucuronidation of 4-MU in the liver and intestines by multiple UDP-glucuronosyltransferases (UGTs), the predominant form present systemically in mice on oral 4-MU chow is 4-MUG, as has been reported previously (Mulder G J, et al., Biochem Pharmacol. 1985; 34(8):1325-1329). For example, FIG. 1A illustrates molecular structures for 4-MU and its primary metabolites, 4-MUG and 4-MUS. […] N=3 animals per group. […] N=3 animals per group.

B16F10 cells = assay: 4-MU fluorescence of treated B16F10 cells by flow cytometry, pre- and post-permeabilization; format: in vitro ADME, murine
Description: Fluorescent values of 4-MUG were normalized to the 4-MU fluorescence. Referring to FIG. 2 B, 4-MU or 4-MUG was added to PBS with 10% FCS and the increase of fluorescence signal using a fluorescence plate reader was monitored at intervals up to 72 hours. […] B16F10 cells were cultured in DMEM and were treated with different concentrations of 4-MU and 4-MUG (30, 100, 300 μM) for 24 and 48 hours. Cultured cells were lysed and analyzed for HA concentration determination using an HA ELISA. HA staining in B16F10 cells placed in 96 well plates were imaged using fluorescence microscopy. To measure 4-MU florescence intensity in B16F10 cells treated with 4-MU and 4-MUG, B16F10 cells were trypsinized and 4-MU fluorescence associated with the cells was analyzed by flow cytometry in the Pacific Blue channel using a BD™ LSRII flow cytometer. For permeabilization, after trypsinization, cells were incubated in methanol at −20° C. for 20 min and washed once before flow cytometric analysis.

Min6 cells = assay: HA synthesis inhibition in Min6 insulinoma cells; format: cell-based; conditions: insulinoma cell line
Description: Samples were thawed and assayed for HA levels using a modified HA ELISA as previously described (Nagy N., et al., J. Clin. Invest. 2015; 125(10):3928-3940). Each sample was analyzed in triplicate with a mean value obtained per sample. For cell normalization, LI-COR CellTag™ 700 Stain was used according to the manufactures protocol.

db/db mice = assay: db/db mouse model of type 2 diabetes; format: in vivo; conditions: for body weight of db/db mice: after start of treatment; for intra-peritoneal glucose tolerance testing (IPGTT): fasting db/db mice fed drug for previous 2 weeks; for HA staining in pancreatic islets of db/db mice: mouse, in vivo; for blood glucose (BG) levels in db/db mice: over one month, 4-MU chow or 4-MUG in drinking water vs control chow
Excerpt: All animals were bred and maintained under specific pathogen-free conditions, with free access to food and water, in the animal facilities at Stanford University Medical School (Stanford, Calif.). B6 db/db LeptR−/− mice were purchased from Jackson Laboratories (JAX) as well as DO11.10 transgenic mice. The DO11.10 mice were bred with Balb/c mice expressing RIPmOva (ovalbumin peptide amino acids 323-339; available at the Benaroya Research Institute) to generate the DORmO double-transgenic mice. In addition, C57Bl/6J mice were bred in-house at Stanford University School of Medicine.
Beginning at four weeks of age, mice were weighed weekly as well as bled via the tail vein for the determination of their blood glucose level using a Contour® blood glucose meter and blood glucose monitoring strips (Bayer Healthcare). When two consecutive blood glucose readings of 250 mg/dL were recorded, animals were considered diabetic. When two consecutive blood glucose readings of 300 mg/dL were recorded, animals were euthanized.
The 4-MU (Alfa Aesar) was pressed into mouse chow (TestDiet, St. Louis, Mo.) and irradiated before shipment, as previously described (Nagy N., et al., Circulation. 2010; 122(22):2313-2322). This chow formulation delivers 250 mg/mouse/day, yielding a serum drug concentration of 640.3±17.2 nmol/L in mice, as measured by HPLC-MS. 4-MUG (ChemImpex, Wood Dale, Ill.) was distributed in the drinking water at a concentration of 2 mg/ml, delivering 10 mg/mouse/day, yielding a serum drug concentration of 357.1±72.6 ng/mL in mice, as measured by LC-MS/MS. Mice were initiated on 4-MU and 4-MUG at five, eight or twelve weeks of age, unless otherwise noted, and were maintained on this diet until they were euthanized, unless otherwise noted. For analysis of Foxp3+ regulatory T-cell numbers in naïve mice, mice were treated daily with 0.5 mg of 4-MU or 1.0 mg 4-MUG in 200 μl 0.08% carboxymethylcellulose in saline by intra-peritoneal injection.
To assess whether 4-MUG is effective against HA synthesis in a different inflammatory disease that is non-autoimmune in nature, the role of 4-MUG in the db/db model of type 2 diabetes was investigated. db/db mice lack a functional leptin receptor and are obese and diabetic.
Referring to FIG. 7D, the beneficial effect of 4-MU and 4-MUG on glycemic control was maintained for at least 10 weeks, indicating a lasting improvement. FIGS. 7F and 7G show intra-peritoneal glucose tolerance testing (IPGTT) of fasting db/db mice fed 4-MU or 4-MUG for 2 weeks.

Structure (SMILES)	inhibition of HA synthesis by human cell lines (human cell lines)	median serum concentration of 4-MUG relative to parent compound 4-MU [1]	time after which treated B16F10 cells became fluorescent (B16F10 cells; incubated 24, 48 or 72 hours, flow cytometry) [h]	HA synthesis inhibition in Min6 cells (Min6 cells)	body weight of db/db mice (db/db mice)	intra-peritoneal glucose tolerance testing (IPGTT) (db/db mice)	HA staining in pancreatic islets of db/db mice (db/db mice)	blood glucose (BG) levels in db/db mice (db/db mice)	fluorescence of treated B16F10 cells upon permeabilization (B16F10 cells)
Cc1cc(=O)oc2cc(O[C@@H]3O[C@H](C(=O)O)[C@@H](O)[C@H](O)[C@H]3O)ccc12 [4-MUG, 4-methylumbelliferone-glucuronide]	just as well as the parent drug	about 150 fold	48 to 72	inhibited HA synthesis	soon recovered	improvement in glycemic control	reduced HA staining	reliably decreased blood glucose	–
Cc1cc(=O)oc2cc(O)ccc12 [4-MU, 4-methylumbelliferone]	–	–	–	HA synthesis inhibition	initial decrease in weight	improvement in glycemic control	reduced HA staining	reliably decreased blood glucose	lost upon permeabilization
